# Laboratory results as given in US20260068882A1, “ARTHROPOD CONTROLLING COMPOSITION” (Firmenich SA, priority 2019, published 2026).
# Columns and labels:
# [1] = tested on: Aedes aegypti; assay: In vitro Warm Body assay, mosquitoes landing on treated warm body; type: in vivo; details: for % of mosquitoes' repellency: normalised to landing with 100% ethanol
# Outline: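 Adapted Warm Body assay with host-seeking, non-blood-fed, sugar-fed A. aegypti Rockefeller females aged 5–10 days (10–12 days in one set); cages held 30 (or 25) females at 150 lux. Landings were counted automatically. Doses in ethanol were 0.0016%, 0.04% and 1% in triplicate, or a single replicate across 0.0016–1%.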
# [2] = tested on: Aedes aegypti; assay: In vivo K&D assay on treated skin of human study participants
# Source text: For the K&D in vivo test [Klun J A, Debboun M. A new module for quantitative evaluation of controlling efficacy using human subjects. J Med Entomol. 2000; 37:177-81.], 3 study participants, 2 females and 1 male, showing low or no skin reactions against mosquito bites were recruited at the Swiss Tropical and Public Health Institute (Swiss TPH). […] The study was approved by the Ethics Commission of Northwest and Central Switzerland (Study no. PB_2017-00436-220/11) and all study participants signed an informed consent form. To avoid unwanted bias the participants were asked to avoid alcohol and products such as perfume, eau de cologne and lotions for at least 12 hours before and during the experiments. During the experiments the participants were also asked to avoid rubbing, touching or wetting the arthropod controlling compound-treated area as well as any activity that might lead to increased perspiration.
# In the in vivo assay, a template was used to delineate 4 cm×5 cm areas on the skin that correspond to each of the six cell openings (3 cm×4 cm) on the bottom of the K&D module. Five areas were treated with the different tested stimuli. The module, with five host-seeking, 5- to 10-day-old mosquitoes in each cell, was then positioned over the treated skin area. The number of mosquitoes blood feeding within a 2-minute exposure was recorded. This procedure was repeated until six replicate exposures and observations (i.e. 30 mosquitoes) were made for the three study participants.
# [3] = Aedes aegypti, read-out: decrease of landings
smiles,measurement,setting,value
"Cc1ccc2c(c1)CC(C)(CO)C2 (stereo not drawn) [ingredient #2, (2,5-dimethyl-2,3-dihydro-1H-inden-2yl)methanol]",% of mosquitoes' repellency,[1]; 0.00032% concentration,18%
same,% of mosquitoes' repellency,[1]; 0.00071% concentration,46%
same,% of mosquitoes' repellency,[1]; 0.0016% concentration,14%
same,number of mosquitoes landed on the Warm Body,"[1]; 0.0016% in ethanol (Table 7, one replicate)",68
same,% of mosquitoes' repellency,[1]; 0.0036% concentration,46%
same,% of mosquitoes' repellency,[1]; 0.0053% concentration,0%
same,% of mosquitoes' repellency,[1]; 0.0080% concentration,26%
same,number of mosquitoes landed on the Warm Body,"[1]; 0.008% in ethanol (Table 7, one replicate)",61
same,% of mosquitoes' repellency,[1]; 0.018% concentration,26%
same,% of mosquitoes' repellency,[1]; 0.040% concentration,61%
same,number of mosquitoes landed on the Warm Body,"[1]; 0.04% in ethanol (Table 7, one replicate)",22
same,% of mosquitoes' repellency,[1]; 0.089% concentration,60%
same,% of mosquitoes' repellency,[1]; 0.20% concentration,80%
same,number of mosquitoes landed on the Warm Body,"[1]; 0.2% in ethanol (Table 7, one replicate)",9
same,number of mosquitoes landed on the Warm Body,"[1]; 0.447% in ethanol (Table 7, one replicate)",3
same,% of mosquitoes' repellency,[1]; 0.45% concentration,93%
same,% of mosquitoes' repellency,[1]; 1% concentration,91%
same,number of mosquitoes landed on the Warm Body,"[1]; 1% in ethanol (Table 7, one replicate)",8
same,pest or weed control at 0.0016 %,[1]; [3],4 to 29%
same,pest or weed control at 0.04 %,[1]; [3],~70%
same,repulsion (in words),[1]; concentrations lower than 0.04%,only low repulsion
same,% repulsion,[2]; 0.02% in ethanol on human skin,23.3%
same,% repulsion,[2]; 0.1% in ethanol on human skin,27.8%
same,% repulsion,[2]; 0.5% in ethanol on human skin,54.4%
same,% repulsion,[2]; 2.5% in ethanol on human skin,82.2%
same,% repulsion,[2]; 10% in ethanol on human skin,93.3%
same,concentration from which a significant repellent effect is shown,"[2]; on its own, in ethanol",≥ 0.5%
